Experimental data published in US9957230B2, “Synergistic compositions” (Cadila Healthcare Limited, priority 2013, dated 2018).

How the values were obtained:
Format in all cases: in vivo
[1] = tested on: db/db mice; experiment: Antidiabetic activity in db/db mice (studies I and II): non-fasting serum glucose; details: Compound (Ia) 0.1 mg/kg
Excerpt: The in-vivo efficacy for antidiabetic activity was done for (I) and (II) individually with db/db mice of 13-14 weeks of age.
8. […] 8. The treatment was given oral gavages once daily for 14 days. […]

[2] = tested on: db/db mice; experiment: Oral glucose tolerance test in db/db mice (studies I and II); details: Compound (Ia) 0.1 mg/kg; for AUC Glucose: OGTT day 14, fasting, glucose load 2 gm/kg
Excerpt: 8. […] 8. The treatment was given oral gavages once daily for 14 days.
The OGTT procedure followed is as given below—

[3] = tested on: Swiss albino mice; experiment: Triglyceride lowering effects of various salts in Swiss albino mice; details: dose equivalent to 1 mg/kg free acid; for Serum triglycerides (mg/dl) Day 0: Day 0 (pretreatment); for Serum triglycerides (mg/dl) Day 0 / Serum triglycerides (mg/dl) Day 6: male Swiss albino mice; for Serum triglycerides (mg/dl) Day 6: Day 6, one hr after dose; for % Change Vs control: serum triglycerides vs vehicle control after 6 days; for % Change Day 6 vs Day 0: serum triglycerides
Protocol: Comparative Efficacy Study of (Triglyceride Lowering Effects) of Various Salts of Compound (Ia) in Swiss Albino Mice.
The in-vivo efficacy of compound (I) was evaluated in Swiss albino mice. Anti-dyslipidemic drugs have been reported to lower circulating levels of triglyceride in Swiss albino mice through their effect on genes involved in the peroxisomal fatty acid beta oxidation via PPAR alpha agonism. Therefore, this species is preferred for evaluation of their efficacy in lowering circulating triglyceride (TG) levels.
In this experiment, six to eight week old male Swiss albino mice were issued and kept for acclimatization. Near the end of the acclimatization period, animals judged to be suitable for testing were bled under light ether anesthesia and serum samples were analyzed for Serum triglyceride levels.
Test compound was formulated at specified doses in vehicle (10% Polyethylene glycol (PEG) 400+90% of 0.5% Sodium Carboxy methyl cellulose). The animals were dosed orally, once daily in the morning during six days, starting from next day of grouping with vehicle or test compound. The animals were weighed prior to dosing, and based on these weights; the volume of administration was calculated. The volume of formulation administered to each mouse was 10 ml/kg body weight.
On day 6 one hr after the dose administration, blood (0.25 ml) was collected from retro-orbital sinus of the anaesthetized animals. Serum was separated by centrifugation. Serum was analyzed for triglyceride levels. Analysis for serum triglyceride levels was performed using a Spectrophotometer and commercially available kit. Calculations for determination of % change and % reduction in serum TG levels were performed using MS Excels sheet.

[4] = tested on: db/db mice; experiment: Oral glucose tolerance test in db/db mice (studies VII and VIII); details: Compound Ia 0.1 mg/kg, Glimepiride 2 mg/kg p.o.; for % improvement in AUC glucose vs control: Table 31 and text, OGTT after 7 days of treatment
Excerpt: (§1) In this experiment, 49 db/db mice of 12-16 week were divided into 7 groups and as per their day 0 serum glucose levels. […] Detail treatments and routes of administrations were mentioned in Table no. 27. The treatment was given once daily for 7 days.
(§2) The blood was collected by retro-orbital sinus puncture method under light ether anesthesia on day 0 (pretreatment) and on day 6 (one hour after dose administration) for non-fasting glucose analysis and oral glucose tolerance test (OGTT) was performed on day 7 of the treatment in fasting condition. After blood collection serum was separated and analyzed glucose analysis using Spectra max and commercial diagnostic kits. The OGTT procedure followed is as given below—
Oral Glucose Tolerance Test (OGTT): One day before OGTT all animals were kept on overnight fasting and on the day of OGTT, day 7 of the treatment each animal was dosed with a single dose of vehicle/test compounds administered orally and 60-min post dosing blood was collected (0 min) and glucose load (2 gm/kg/10 ml) administered per orally. Blood was then collected at time points corresponding to 30, 60 and 120 min after glucose load administration. Serum was separated and analyzed for glucose using Spectra max and commercial diagnostic kits.
(§3) The calculation for antidiabetic activity i.e. effect on serum glucose and improvement in glucose Area Under Curve (AUC) was calculated using the excel sheet and Graph Pad Prism software. The day-0 and day-6 glucose values of vehicle control and treatment were considered for calculating the effect on serum glucose. The effect on glucose AUC was calculated using the OGTT glucose levels at different time points and the improvement in glucose AUC were the reduction in glucose AUC after the treatment during OGTT.

[5] = tested on: db/db mice; experiment: Antidiabetic activity with Exenatide or Glimepiride in db/db mice (studies VII and VIII): non-fasting serum glucose; details: Compound Ia 0.1 mg/kg
Excerpt: The in-vivo efficacy for antidiabetic activity was done in male and female db/db mice of 12-16 weeks of age. Generally obese and diabetic animals are insulin resistant and have abnormalities in glucose and lipid metabolism. The development of diabetes and beta cell dysfunction in these animal models closely parallels the pathophysiology of the disease condition in humans. […] They progressively develop into insulinopenia with age, a feature commonly observed in last stage of type-2 diabetes, when blood sugar levels are insufficiently controlled. Therefore, this genetic model proves to be suitable for predicting the likely therapeutic benefit of novel euglycemic agents in human type-2 diabetes.
as §1, §2, §3

[6] = Table 3, oral once daily 6 days

## N[C@@H](CC(=O)N1CCn2c(nnc2C(F)(F)F)C1)Cc1cc(F)c(F)cc1F [Sitagliptin, reference compound]
[1]; Table 9, Day 0 (pretreatment), female db/db mice, Sitagliptin 3 mg/kg p.o. once daily
  Serum Glucose (mg/dl) Day 0: 407.9 ± 34.5 mg/dL
[1]; Table 9, Day 12, non-fasting, female db/db mice, Sitagliptin 3 mg/kg p.o. once daily
  Serum Glucose (mg/dl) Day 12: 485.3 ± 50.5 mg/dL
[1]; Table 9, serum glucose day 12 vs vehicle control, Sitagliptin 3 mg/kg p.o. once daily
  % Change Vs control: 18.5 ± 5.0%
[1]; Table 9, serum glucose, Sitagliptin 3 mg/kg p.o. once daily
  % Change Day 12 vs Day 0: 18.3 ± 5.0%
[1]; female db/db mice, Sitagliptin 3 mg/kg, Metformin 150 mg/kg
  reduction in serum glucose: does not show any reduction rather it has shown slight increase in serum glucose
[2]; Table 10, Sitagliptin 3 mg/kg p.o.
  AUC Glucose: 64655.9 ± 6300.6 mg·min/dL

## CN(C)C(=N)N=C(N)N [Metformin, 1,1-Dimethylbiguanidine, reference compound]
[2]; Table 12, OGTT after 14 days of treatment, Metformin 150 mg/kg p.o.
  % improvement in AUC glucose vs control: 20.4%
[2]; Table 12, Metformin 150 mg/kg p.o.
  AUC Glucose: 45255.9 mg·min/dL

## (S) 2-Ethoxy-3-(4-{2-[2-methyl-5-(4-methylthiophenyl)-pyrrol-1-yl]-ethoxy}-phenyl)-propionic acid Zinc Salt [Zinc Salt of Formula (I)]
[3]; [6]
  Serum triglycerides (mg/dl) Day 0: 119.1 ± 7.6 mg/dL
  Serum triglycerides (mg/dl) Day 6: 68.6 ± 7.5 mg/dL
  % Change Day 6 vs Day 0: −42.7 ± 4.2%
[3]; Table 3, oral
  % Change Vs control: −42.0 ± 4.2%

## CCC1=C(C)CN(C(=O)NCCc2ccc(S(=O)(=O)NC(=O)N[C@H]3CC[C@H](C)CC3)cc2)C1=O [Glimepiride, reference compound]
[4]; Table 31, OGTT day 7, fasting, glucose load 2 gm/kg
  AUC Glucose: 62529.0 mg·min/dL
[4]
  % improvement in AUC glucose vs control: −2.6%
[4]; listed as glimepiride
  % improvement in AUC glucose vs control: does not any improvement
[5]; Table 30, Day 0 (pretreatment), male and female db/db mice, Glimepiride 2 mg/kg p.o. once daily
  Serum Glucose (mg/dl) Day 0: 402.0 mg/dL
[5]; Table 30, Day 6, one hour after dose, non-fasting, Glimepiride 2 mg/kg p.o. once daily
  Serum Glucose (mg/dl) Day 6: 506.7 mg/dL
[5]; Table 30, serum glucose, Glimepiride 2 mg/kg p.o.
  % Change Day 6 vs Day 0: 26.9%
[5]; Table 30 and text, serum glucose day 6 vs vehicle control, Glimepiride 2 mg/kg p.o.
  % Change Vs control: 10.1%

## (S) 2-Ethoxy-3-(4-{2-[2-methyl-5-(4-methylthiophenyl)-pyrrol-1-yl]-ethoxy}-phenyl)-propionic acid Meglumine salt [Maglumine salt of Formula (I)]
[3]; Table 7, po once daily 6 days
  Serum triglycerides (mg/dl) Day 0: 110.6 ± 9.1 mg/dL
  Serum triglycerides (mg/dl) Day 6: 32.4 ± 1.5 mg/dL
  % Change Day 6 vs Day 0: −70.0 ± 2.2%
[3]; Table 7, po
  % Change Vs control: −66.5 ± 2.5%

## CCO[C@@H](Cc1ccc(OCCn2c(C)ccc2-c2ccc(SC)cc2)cc1)C(=O)O.NCCO [Ethanolamine salt of Formula (I)]
[3]; Table 7, po once daily 6 days
  Serum triglycerides (mg/dl) Day 0: 110.5 ± 7.5 mg/dL
  Serum triglycerides (mg/dl) Day 6: 42.5 ± 3.6 mg/dL
  % Change Day 6 vs Day 0: −61.3 ± 3.2%
[3]; Table 7, po
  % Change Vs control: −56.9 ± 3.6%

## CCO[C@@H](Cc1ccc(OCCn2c(C)ccc2-c2ccc(SC)cc2)cc1)C(=O)[O-].C[N+](C)(C)CCO [Choline salt of Formula (I), Choline Salt (i.e 2-Hydroxy-N,N,N-trimethylethanaminium hydroxide or choline hydroxide) of (S) 2-Ethoxy-3-(4-{2-[2-methyl-5-(4-methylthiophenyl)-pyrrol-1-ylethoxyphenylpropionic acid]
[3]; Table 7, po once daily 6 days
  Serum triglycerides (mg/dl) Day 0: 110.9 ± 7.7 mg/dL
  Serum triglycerides (mg/dl) Day 6: 47.6 ± 3.4 mg/dL
  % Change Day 6 vs Day 0: −56.0 ± 4.3%
[3]; Table 7, po
  % Change Vs control: −51.0 ± 4.8%
